Experimental data: patent US20120258929A1, “AGENT THAT MODULATES PHYSIOLOGICAL CONDITION OF PESTS, INVOLVED IN INSECT PEPTIDYL-DIPEPTIDASE A ACTIVITY” (SUMITOMO CHEMICAL COMPANY, LIMITED, priority 2005, published 2012)

How the values were obtained:
[1] = target: aphid peptidyl-dipeptidase A (Aphis gossypii, UniProt A0A2K9Y4D7); assay: Inhibition of aphid peptidyl-dipeptidase A activity, in vitro, substrate Abz-Gly-p-nitro-Phe-Pro-OH; type: biochemical, cotton aphid (Aphis gossypii); details: for inhibition at 10 µM / Activity of inhibiting peptidyl-dipeptidase A activity (inhibition degree (%) at 10 μM addition): test compound in DMSO, final concentration 10 μM, relative to DMSO control; for inhibition at 10 µM: read-out: Activity of inhibiting peptidyl-dipeptidase A activity (inhibition degree (%) at 10 μM addition); for IC50: concentrations 100 to 0.03 μM, calculated with XL fit, read-out: Activity of inhibiting peptidyl-dipeptidase A activity IC50, (μM))
Experimental: Selection of a compound which modulates the activity of a peptidyl-dipeptidase A was performed in a system where the activity of a peptidyl-dipeptidase A which is modulated by adding a test compound to an in vitro reaction system using the aphid peptidyl-dipeptidase A prepared in Example 7 is measured and evaluated.
Measurement of the activity of the aphid peptidyl-dipeptidase A was performed according to a method using Abz-Gly-p-nitro-Phe-Pro-OH (manufactured by Bachem, M-1100) as a substrate, as described in the previously reported article (Carmel et al. (1979) Clinica Chimica Acta, 93, 215-220).
For measuring the activity, the activity of the aphid peptidyl-dipeptidase A was measured when a test compound dissolved in DMSO was contained to a final concentration of 10 μM. In addition, the activity of the aphid peptidyl-dipeptidase A was measured when DMSO was contained in place of a test compound. Then, a ratio (%) of a measured value of the activity of the aphid peptidyl-dipeptidase A when a test compound dissolved in DMSO was contained, relative to a measured value of the activity of aphid peptidyl-dipeptidase A when DMSO was contained in place of the test compound was calculated, and a value obtained by subtracting the calculated value from 100% was adopted as an inhibition degree (%).
The activity of aphid peptidyl-dipeptidase A was measured when a test compound dissolved in DMSO was contained to a final concentration of each concentration of 100 μM, 30 μM, 10 μM, 3 μM, 1 μM, 0.3 μM, 0.1 μM or 0.03 μM.

Aphis gossypil = assay: Pesticidal activity test, artificial feed rearing, surviving aphids after six days; type: in vivo
Experimental: A sterilized artificial feed having the following composition (Table 3) was prepared. […] Controlling value (%)={1−(Cb×Tai)/(Cai×Tb)}×100 Letters in the equation represent the following meanings.

[2] = test compound dissolved in DMSO to a final concentration of 50 ppm, otherwise as Example 9
[3] = test compound dissolved in DMSO to a final concentration of 640 μM, added at 0.5% volume of artificial feed, significant controlling value (e.g. 30% or more) = pesticidal activity

Sequence of aphid peptidyl-dipeptidase A (A0A2K9Y4D7 entry or part of it): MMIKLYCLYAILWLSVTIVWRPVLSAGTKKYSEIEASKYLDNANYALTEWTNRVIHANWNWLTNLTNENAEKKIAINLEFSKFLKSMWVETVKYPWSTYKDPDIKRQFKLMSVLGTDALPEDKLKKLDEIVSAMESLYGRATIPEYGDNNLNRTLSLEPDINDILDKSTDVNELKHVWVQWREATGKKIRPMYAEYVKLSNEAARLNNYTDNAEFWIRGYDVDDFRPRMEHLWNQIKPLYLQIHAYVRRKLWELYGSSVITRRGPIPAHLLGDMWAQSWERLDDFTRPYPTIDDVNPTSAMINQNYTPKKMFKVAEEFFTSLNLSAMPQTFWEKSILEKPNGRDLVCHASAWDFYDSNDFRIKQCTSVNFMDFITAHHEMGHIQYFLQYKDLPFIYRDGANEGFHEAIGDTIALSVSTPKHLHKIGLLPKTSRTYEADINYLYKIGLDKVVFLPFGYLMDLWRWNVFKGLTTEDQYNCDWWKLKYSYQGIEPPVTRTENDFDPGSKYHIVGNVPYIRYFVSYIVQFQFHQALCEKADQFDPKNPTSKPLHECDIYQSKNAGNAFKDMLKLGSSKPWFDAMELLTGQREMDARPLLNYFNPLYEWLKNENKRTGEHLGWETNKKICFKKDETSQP

Compound | inhibition at 10 µM [1] [%] | Determination result of pesticidal activity (Aphis gossypil; […], significant controlling value (e.g. 30% or more) = pesticidal activity) | Determination result of pesticidal activity (Aphis gossypil; [2]) | IC50 [1] [µM] | Activity of inhibiting peptidyl-dipeptidase A activity (inhibition degree (%) at 10 μM addition) [1] [%] | Determination result of pesticidal activity (Aphis gossypil; [3])
C[C@H](CS)C(=O)N1CCC[C@H]1C(=O)O [captopril] | 99 |  |  |  |  | 
quinapril |  | Presence of pesticidal activity | Presence of pesticidal activity | 35.8 | 15 | 
CCOC(=O)[C@H](CCc1ccccc1)N[C@@H](C)C(=O)N1[C@H](C(=O)O)C[C@@H]2CCC[C@@H]21 [ramipril] | 16 |  |  |  |  | Presence of pesticidal activity
CCN(CC)CCO[C@H]1CC[C@@]2(C)C(=CC[C@@H]3[C@@H]2CC[C@]2(C)C(=O)CC[C@@H]32)C1 [3-beta-[2-(diethylamino)ethoxy]androst-5-en-17-one] |  |  |  |  | 17 | Presence of pesticidal activity
CCOC(=O)[C@H](CCc1ccccc1)N[C@H]1CCc2ccccc2N(CC(=O)O)C1=O [benazepril] | 41 |  | Presence of pesticidal activity | 15.9 |  | Presence of pesticidal activity
CC12CCC3c4ccc(O)cc4CCC3C1C/C(=C\c1ccc(OC(F)(F)F)cc1)C2=O (stereo not drawn) [DF15164] |  |  | Absence of pesticidal activity |  |  | 
CCOC(=O)[C@H](CCc1ccccc1)N[C@@H](C)C(=O)N1CCC[C@H]1C(=O)O [enalapril] | 98 |  |  |  |  | Presence of pesticidal activity
COC(=O)C(Cc1ccccc1)NC(=O)Nc1n[nH]c(=S)s1 (stereo not drawn) [MMP-2/MMP-3 inhibitor I] | 79 |  |  |  |  | Presence of pesticidal activity
